Experimental data as given in ChEMBL document CHEMBL1201862, “PubChem BioAssay data set” (2004).
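Dose response: 5 concentrations. Exposure: 48 h. Format: 96-well plates. Endpoint: linear interpolation; highest concentration if not reached. Abbreviation: GI50, concentration required for 50% inhibition of growth.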 Activity calls are given as the source filed them. Cut-off read from the data, not from the text of the source: active = GI50 up to about 1.1 µM and inactive = higher.

What was measured:
Assay in all cases: NCI anticancer screen, dose series, 48 h
MDA-MB-435 = tested on: MDA-MB-435
Hs-578T = tested on: Hs-578T
HL-60 = tested on: HL-60
Malme-3M = tested on: Malme-3M
TK-10 = tested on: TK-10
HCT-15 = tested on: HCT-15
SW-620 = tested on: SW-620
NCI-H226 = tested on: NCI-H226
PC-3 = tested on: PC-3
NCI-H460 = tested on: NCI-H460
SF-539 = tested on: SF-539
ACHN = tested on: ACHN
OVCAR-8 = tested on: OVCAR-8
T47D = tested on: T47D
COLO 205 = tested on: COLO 205
A498 = tested on: A498
CAKI-1 = tested on: CAKI-1
IGROV-1 = tested on: IGROV-1
RXF 393 = tested on: RXF 393
SF-268 = tested on: SF-268

COc1ccccc1CC(=O)C(O)(C(F)(F)F)C(F)(F)F
GI50 (MDA-MB-435): > 100 µM (inactive) | GI50 (Hs-578T): > 100 µM (inactive) | GI50 (HL-60): > 100 µM (inactive) | GI50 (Malme-3M): > 100 µM (inactive) | GI50 (TK-10): > 100 µM (inactive) | GI50 (HCT-15): > 100 µM | GI50 (SW-620): > 100 µM (inactive) | GI50 (NCI-H226): > 100 µM (inactive) | GI50 (PC-3): > 100 µM (inactive) | GI50 (NCI-H460): > 100 µM (inactive) | GI50 (SF-539): > 100 µM (inactive) | GI50 (ACHN): > 100 µM (inactive) | GI50 (OVCAR-8): > 100 µM (inactive) | GI50 (T47D): > 100 µM (inactive) | GI50 (COLO 205): > 100 µM (inactive) | GI50 (A498): > 100 µM (inactive) | GI50 (CAKI-1): > 100 µM (inactive) | GI50 (IGROV-1): > 100 µM (inactive) | GI50 (RXF 393): > 100 µM (inactive) | GI50 (SF-268): > 100 µM (inactive)

O=C1Sc2cc3ccccc3cc2C(=O)Sc2ccc(Br)cc21
GI50 (MDA-MB-435): 3.48 µM (inactive) | GI50 (Hs-578T): 5.09 µM (inactive) | GI50 (HL-60): 3.9 µM (inactive) | GI50 (Malme-3M): 11.9 µM (inactive) | GI50 (TK-10): 5.33 µM (inactive) | GI50 (HCT-15): 2.43 µM | GI50 (SW-620): 3.07 µM (inactive) | GI50 (NCI-H226): 14.9 µM (inactive) | GI50 (PC-3): 3.43 µM (inactive) | GI50 (NCI-H460): 7.26 µM (inactive) | GI50 (SF-539): 7.93 µM (inactive) | GI50 (ACHN): 1.66 µM (inactive) | GI50 (OVCAR-8): 2.51 µM (inactive) | GI50 (T47D): 3.33 µM (inactive) | GI50 (COLO 205): 12.8 µM (inactive) | GI50 (A498): 19 µM (inactive) | GI50 (CAKI-1): 4.73 µM (inactive) | GI50 (IGROV-1): 3.78 µM (inactive) | GI50 (RXF 393): 2.48 µM (inactive) | GI50 (SF-268): 6.08 µM (inactive)

CCCCOC(=O)N[C@H]1CCc2cc(OC)c(OC)c(OC)c2-c2ccc(SC)c(=O)cc21
GI50 (MDA-MB-435): < 0.01 µM (active) | GI50 (Hs-578T): < 0.01 µM (active) | GI50 (HL-60): 0.0123 µM (active) | GI50 (Malme-3M): < 0.01 µM (active) | GI50 (TK-10): 0.198 µM (active) | GI50 (HCT-15): < 0.01 µM | GI50 (SW-620): < 0.01 µM (active) | GI50 (NCI-H226): 0.0931 µM (active) | GI50 (PC-3): 0.0127 µM (active) | GI50 (NCI-H460): < 0.01 µM (active) | GI50 (SF-539): < 0.01 µM (active) | GI50 (ACHN): < 0.0114 µM (active) | GI50 (OVCAR-8): < 0.01 µM (active) | GI50 (T47D): 18.1 µM (inactive) | GI50 (COLO 205): < 0.01 µM (active) | GI50 (A498): < 0.01 µM (active) | GI50 (CAKI-1): < 0.01 µM (active) | GI50 (IGROV-1): 0.0101 µM (active) | GI50 (RXF 393): < 0.031 µM (active) | GI50 (SF-268): < 0.01 µM (active)

COc1cc(/C=N/n2c(-c3ccccc3)nn(C(C)=O)c2=O)cc(OC)c1OC
GI50 (MDA-MB-435): 0.19 µM (active) | GI50 (Hs-578T): 3.13 µM (inactive) | GI50 (HL-60): 0.745 µM (active) | GI50 (Malme-3M): 5.36 µM (inactive) | GI50 (TK-10): 3.85 µM (inactive) | GI50 (HCT-15): 0.635 µM | GI50 (SW-620): 0.836 µM (active) | GI50 (NCI-H226): 18.5 µM (inactive) | GI50 (PC-3): 2.07 µM (inactive) | GI50 (NCI-H460): 0.619 µM (active) | GI50 (SF-539): 1.66 µM (inactive) | GI50 (ACHN): 6 µM (inactive) | GI50 (OVCAR-8): 3.78 µM (inactive) | GI50 (T47D): 8.02 µM (inactive) | GI50 (COLO 205): 1.58 µM (inactive) | GI50 (A498): 1.59 µM (inactive) | GI50 (CAKI-1): 1.77 µM (inactive) | GI50 (IGROV-1): 2.11 µM (inactive) | GI50 (RXF 393): 5.26 µM (inactive) | GI50 (SF-268): 6.27 µM (inactive)

CC[S+]([O-])c1c2cc(OC)ccc2nc2ccc(OC)cc12 (stereo not given)
GI50 (MDA-MB-435): 8.85 µM (inactive) | GI50 (Hs-578T): 13.1 µM (inactive) | GI50 (HL-60): 4.99 µM (inactive) | GI50 (Malme-3M): 5.12 µM (inactive) | GI50 (TK-10): 5.38 µM (inactive) | GI50 (HCT-15): 6.75 µM | GI50 (SW-620): 6.84 µM (inactive) | GI50 (NCI-H226): 21.8 µM (inactive) | GI50 (PC-3): 10.7 µM (inactive) | GI50 (NCI-H460): 29.5 µM (inactive) | GI50 (SF-539): 6.79 µM (inactive) | GI50 (ACHN): 4.79 µM (inactive) | GI50 (OVCAR-8): 5.55 µM (inactive) | GI50 (T47D): 2.62 µM (inactive) | GI50 (COLO 205): 6.08 µM (inactive) | GI50 (A498): 17.3 µM (inactive) | GI50 (CAKI-1): 5.06 µM (inactive) | GI50 (IGROV-1): 4.94 µM (inactive) | GI50 (RXF 393): 4.71 µM (inactive) | GI50 (SF-268): 14.5 µM (inactive)

CC[C@@H]1CC[C@@H]2[C@H](CC[C@]3(C)[C@@H](O)CC[C@@H]23)[C@H]1C(=O)O
GI50 (MDA-MB-435): > 100 µM (inactive) | GI50 (Hs-578T): > 100 µM (inactive) | GI50 (HL-60): > 100 µM (inactive) | GI50 (Malme-3M): > 100 µM (inactive) | GI50 (TK-10): > 100 µM (inactive) | GI50 (HCT-15): > 100 µM | GI50 (SW-620): > 100 µM (inactive) | GI50 (NCI-H226): > 100 µM (inactive) | GI50 (PC-3): > 100 µM (inactive) | GI50 (NCI-H460): > 100 µM (inactive) | GI50 (SF-539): > 100 µM (inactive) | GI50 (ACHN): > 100 µM (inactive) | GI50 (OVCAR-8): > 100 µM (inactive) | GI50 (T47D): > 100 µM (inactive) | GI50 (COLO 205): > 100 µM (inactive) | GI50 (A498): > 100 µM (inactive) | GI50 (CAKI-1): > 100 µM (inactive) | GI50 (IGROV-1): > 100 µM (inactive) | GI50 (RXF 393): > 100 µM (inactive) | GI50 (SF-268): > 100 µM (inactive)

CC(C)(C)C(=O)C(C#N)C(=O)C(C)(C)C
GI50 (MDA-MB-435): > 100 µM (inactive) | GI50 (Hs-578T): > 100 µM (inactive) | GI50 (HL-60): > 100 µM (inactive) | GI50 (Malme-3M): > 100 µM (inactive) | GI50 (TK-10): > 100 µM (inactive) | GI50 (HCT-15): > 100 µM | GI50 (SW-620): > 100 µM (inactive) | GI50 (NCI-H226): > 100 µM (inactive) | GI50 (PC-3): > 100 µM (inactive) | GI50 (NCI-H460): > 100 µM (inactive) | GI50 (SF-539): > 100 µM (inactive) | GI50 (ACHN): > 100 µM (inactive) | GI50 (OVCAR-8): > 100 µM (inactive) | GI50 (T47D): > 100 µM (inactive) | GI50 (COLO 205): > 100 µM (inactive) | GI50 (A498): > 100 µM (inactive) | GI50 (CAKI-1): > 100 µM (inactive) | GI50 (IGROV-1): > 100 µM (inactive) | GI50 (RXF 393): > 100 µM (inactive) | GI50 (SF-268): > 100 µM (inactive)

Clc1nc(-c2ccccc2)nc(Cl)c1Cl
GI50 (MDA-MB-435): 12.9 µM (inactive) | GI50 (Hs-578T): 15 µM (inactive) | GI50 (HL-60): 13.2 µM (inactive) | GI50 (Malme-3M): 5.31 µM (inactive) | GI50 (TK-10): 26.7 µM (inactive) | GI50 (HCT-15): 7.38 µM | GI50 (SW-620): 4.98 µM (inactive) | GI50 (NCI-H226): 12.1 µM (inactive) | GI50 (PC-3): 11.8 µM (inactive) | GI50 (NCI-H460): 18.7 µM (inactive) | GI50 (SF-539): 18.4 µM (inactive) | GI50 (ACHN): 4.94 µM (inactive) | GI50 (OVCAR-8): 14.6 µM (inactive) | GI50 (T47D): 10 µM (inactive) | GI50 (COLO 205): 10.3 µM (inactive) | GI50 (A498): 17.6 µM (inactive) | GI50 (CAKI-1): 3.09 µM (inactive) | GI50 (IGROV-1): 8.69 µM (inactive) | GI50 (RXF 393): 7.85 µM (inactive) | GI50 (SF-268): 11.6 µM (inactive)

COc1ccccc1NC(=O)C1=C(C)NC(C)=C(C(=O)Nc2ccccc2OC)C1c1ccco1
GI50 (MDA-MB-435): 3.48 µM (inactive) | GI50 (Hs-578T): 3.1 µM (inactive) | GI50 (HL-60): 0.638 µM (active) | GI50 (Malme-3M): 4.2 µM (inactive) | GI50 (TK-10): 19.5 µM (inactive) | GI50 (HCT-15): 4.76 µM | GI50 (SW-620): 4.49 µM (inactive) | GI50 (NCI-H226): 7.94 µM (inactive) | GI50 (PC-3): 3.47 µM (inactive) | GI50 (NCI-H460): 3.56 µM (inactive) | GI50 (SF-539): 4.13 µM (inactive) | GI50 (ACHN): 6.41 µM (inactive) | GI50 (OVCAR-8): 17.8 µM (inactive) | GI50 (T47D): 11.9 µM (inactive) | GI50 (COLO 205): 5.56 µM (inactive) | GI50 (A498): 4.3 µM (inactive) | GI50 (CAKI-1): 4.09 µM (inactive) | GI50 (IGROV-1): 9.14 µM (inactive) | GI50 (RXF 393): 2.51 µM (inactive) | GI50 (SF-268): 10.3 µM (inactive)

C=C(C)[C@H]1Cc2c(ccc3c2O[C@@H]2COc4cc(OC)c(OC)cc4[C@@H]2C3=O)O1 [ROTENONE]
GI50 (MDA-MB-435): 0.0206 µM (active) | GI50 (Hs-578T): 0.0785 µM (active) | GI50 (HL-60): 0.0611 µM (active) | GI50 (Malme-3M): 0.0762 µM (active) | GI50 (TK-10): 0.229 µM (active) | GI50 (HCT-15): 0.122 µM | GI50 (SW-620): 0.131 µM (active) | GI50 (NCI-H226): 0.177 µM (active) | GI50 (PC-3): 0.155 µM (active) | GI50 (NCI-H460): 0.0891 µM (active) | GI50 (SF-539): 0.128 µM (active) | GI50 (ACHN): 0.0522 µM (active) | GI50 (OVCAR-8): 0.257 µM (active) | GI50 (T47D): 0.0989 µM (active) | GI50 (COLO 205): 0.118 µM (active) | GI50 (A498): 0.335 µM (active) | GI50 (CAKI-1): 0.185 µM (active) | GI50 (IGROV-1): 0.126 µM (active) | GI50 (RXF 393): 0.0836 µM (active) | GI50 (SF-268): 0.191 µM (active)
